Results published in US8980844B2, “Peptide having antibacterial or anti-inflammatory activity and pharmaceutical composition containing the same as an active ingredient” (Nano Intelligent Biomedical Engineering Corporation Co. Ltd., priority 2010, dated 2015).
Where a name gives a salt, the structure may show the parent alone. No end group written: not given here.

B1: rhHB-EGF: recombinant human HB-EGF, comparator growth factor (protein, UniProt Q99075 63-148, looked up)
Heparin-binding EGF-like …: DLQEADLDLLRVTLSSKPQALATPNKEEHGKRKKKGKGLGKKRDPCLRKYKDFCIHGECKYVKELRAPSCICHPGYHGERCHGLSL

What was measured:
Assay type in all cases: cell-based
[1] = system: COX-2 expression in RAW 264.7 cells; assay: Western blot analysis of COX-2; settings: 1 hour pretreatment, LPS 10 ng/ml, 8 hours, FIG. 4
Method: (§1) RAW 264.7 cells obtained from ATCC (American Type Culture Collection) were incubated in a CO2 incubator (supplied with 5% CO2 and 95% air) with DMEM (Dulbecco's modified Eagle medium) medium containing 10% FBS and 100 units/ml of antibiotics (penicillin and streptomycin) at 37° C.
(§2) The incubated RAW 264.7 cells were treated with each of the peptides having the amino acid sequences of SEQ ID NOS: 1 to 4 for 1 hour, and then treated with LPS (10 ng/ml). After 8 hours, a protein of each of the cytosol and the nucleus was collected and compared with the changes in expressions of iNOS and COX-2 caused by hBD3, rhPDGF-BB and rhHB-EGF. The collected protein was identified by SDS-PAGE and transferred to a nitrocellulose membrane using a blotting kit. The membrane was blotted with each of the primary antibodies iNOS and COX-2 and exposed to HRP (horseradish peroxidase)-conjugated secondary antibody. Then, the membrane was allowed to react with an ECL western blot detection reagent and exposed to an X-ray film to detect signals, thereby measuring the expressions of the inflammation-associated enzymes iNOS and COX-2.

[2] = system: iNOS expression in RAW 264.7 cells; assay: Western blot analysis of iNOS; settings: 1 hour pretreatment, LPS 10 ng/ml, 8 hours, FIG. 4
Method: as §1, §2

[3] = system: NF-κB expression in RAW 264.7 cells; assay: Western blot analysis of NF-κB; settings: 1 hour pretreatment, LPS 10 ng/ml, 8 hours, FIG. 3
Method: In order to examine association with signals, the expression of the allergic inflammation-associated enzyme NF-κB associated with the NF-κB signal was measured.
as §1
The incubated RAW 264.7 cells were treated with each of the peptides having the amino acid sequences of SEQ ID NOS: 1 to 4 for 1 hour, and then treated with LPS (10 ng/ml). After 8 hours, a protein of each of the cytosol and the nucleus was collected and compared with the changes in expression of NF-κB caused by hBD3, rhPDGF-BB and rhHB-EGF. The collected protein was identified by SDS-PAGE and transferred to a nitrocellulose membrane using a blotting kit. The membrane was blotted with the primary antibody NF-κB and exposed to HRP (horseradish peroxidase)-conjugated secondary antibody. Then, the membrane was allowed to react with an ECL western blot detection reagent and exposed to an X-ray film to detect a signal, thereby measuring the expression of the inflammation-associated enzyme NF-κB.

[4] = system: Basophilic leukemia RBL-2H3 cells; assay: Change in release of β-hexosaminidase (degranulation, anti-allergic effect); settings: RBL-2H3 cells sensitised with anti-DNP IgE, challenged with DNP-HAS; concentration of 100 μM; FIG. 2
Method: In order to examine the anti-allergic effects of the peptides having the amino acid sequences of SEQ ID NOS: 1 to 4, the changes in release of β-hexosaminidase by the peptides were measured.
Basophilic leukemia RBL-2H3 cells obtained from ATCC (American Type Culture Collection) were cultured in a CO2 incubator (supplied with 5% CO2 and 95% air) with DMEM (Dulbecco's modified Eagle medium) medium containing 10% FBS (heat inactivated fetal bovine serum) and 100 units/ml of antibiotics (penicillin and streptomycin) at 37° C. for 24 hours. Specifically, the cells were cultured in a 96-well plate at a density of 5×10^4 cells/well, and then the supernatant was removed. […] Then, the absorbance at 405 nm was measured and the change in release of β-hexosaminidase was determined. The method of measuring the amount of β-hexosaminidase is known to be sensitive and accurate compared to a method of quantifying histamine, and thus has recently been frequently used in studies on degranulation. For comparison, In addition, the changes in release of β-hexosaminidase by KF and growth factors (hBD3, rhPDGF-BB and rhHB-EGF), which are used as agents for treating allergic diseases, were measured in the same manner as described above and compared with the changes caused by the peptides.

[5] = system: Prevotella intermedia, Actinomyces israelii, Fusobacterium nucleatum, Staphylococcus aureus subsp aureus, Streptococcus pyogenes, Staphylococcus epidermidis; assay: Antibacterial activity by liquid dilution method (colony count); settings: liquid dilution method, 1, 10 and 100 μg/ml, 37° C. for 1 hour, number of colonies counted; FIG. 1
Method: In order to evaluate the antibacterial effects of the peptides having the amino acid sequences of SEQ ID NOS: 1 to 4, measurement of the antibacterial activities of the peptides was carried out using a liquid dilution method. Periodontal pathogens, including Prevotella intermedia, Actinomyces israelii, and Fusobacterium nucleatum, were cultured in tryptic soy broth. Staphylococcus aureus subsp aureus and Streptococcus pyogenes were curtured in trypticase soy broth, and Staphylococcus epidermidis was curtured in nutrient liquid medium. After the above bacterial strains had been cultured until the absorbance at 620 nm reached 1, the cells were collected and used in the test. […]
In order to measure the antibacterial activities of the peptides using the liquid dilution method, 1 ml of distilled water was placed in a fine tube, after which 10 μl of the diluted bacterial cell solution was placed in the tube, and then 50 μl of the solution was plated on plate medium and used as a control. Meanwhile, plate medium was treated with each of the antibacterial peptides at concentrations of 1 μg/ml, 10 μg/ml and 100 μg/ml at 37° C. for 1 hours, after which 50 μl of the bacterial cell solution was plated on the plate medium, and the number of colonies produced was counted. […]

Molecule | LPS-induced expression of COX-2 [1] | LPS-induced expression of iNOS [2] | LPS-induced expression of NF-κB [3] | release of β-hexosaminidase [4] | antibacterial activity [5]
CN1CCC(=C2c3ccccc3CC(=O)c3sccc32)CC1 [KF, ketotifen fumarate, reference compound] | smaller than the inhibitory effects of the peptides | smaller than the inhibitory effects of the peptides | smaller than the inhibitory effects of the peptides |  | 
hBD3: human beta-defensin-3, comparator (GIINTLQKYYCRVRGGRCAVLSCLPKEEQIGKCSTRGRKCCRRKK; ends and bridges not checked; cysteine pairing not given here; UniProt P81534 23-67, looked up) | no inhibitory effect | no inhibitory effect | not greater than those of the peptides | did not influence the reduction in the release of β-hexosaminidase | lower than those of the peptides
B1 | no inhibitory effect | no inhibitory effect | not greater than those of the peptides | did not influence the reduction in the release of β-hexosaminidase | lower than those of the peptides
